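Briefly, cells in 96-well plates were exposed to five compound concentrations for 48 h, and endpoints were estimated by linear interpolation. At the GI50, growth is halved.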 The source made the active and inactive calls. Cut-off read from the data, not from the text of the source: active = GI50 up to about 1.1 µM and inactive = higher.
Tests used:
Assay in all cases: NCI-60 cell line screen, 48 h
[1] = tested on: 786-0
[2] = tested on: A498
[3] = tested on: A549
[4] = tested on: ACHN
[5] = tested on: BT-549
[6] = tested on: CAKI-1
[7] = tested on: CCRF-CEM
[8] = tested on: COLO 205
[9] = tested on: DU-145
[10] = tested on: EKVX
[11] = tested on: HCC 2998
[12] = tested on: HCT-116
[13] = tested on: HCT-15
[14] = tested on: HL-60
[15] = tested on: HOP-62
[16] = tested on: HOP-92
[17] = tested on: HT-29
[18] = tested on: Hs-578T
[19] = tested on: IGROV-1
[20] = tested on: K562
[21] = tested on: KM12
[22] = tested on: LOX IMVI
[23] = tested on: M14
[24] = tested on: MCF7
[25] = tested on: MDA-MB-231
[26] = tested on: MDA-MB-435
[27] = tested on: MDA-N
[28] = tested on: MOLT-4
[29] = tested on: Malme-3M
[30] = tested on: NCI-H226
[31] = tested on: NCI-H23
[32] = tested on: NCI-H460
[33] = tested on: NCI-H522
[34] = tested on: NCI/ADR-RES
[35] = tested on: OVCAR-3
[36] = tested on: OVCAR-4
[37] = tested on: OVCAR-5
[38] = tested on: OVCAR-8
[39] = tested on: PC-3
[40] = tested on: RPMI-8226
[41] = tested on: RXF 393
[42] = tested on: SF-268
[43] = tested on: SF-295
[44] = tested on: SF-539
[45] = tested on: SK-MEL-28
[46] = tested on: SK-MEL-2
[47] = tested on: SK-MEL-5
[48] = tested on: SK-OV-3
[49] = tested on: SN12C
[50] = tested on: SNB-19
[51] = tested on: SNB-75
[52] = tested on: SR
[53] = tested on: SW-620
[54] = tested on: T47D
[55] = tested on: TK-10
[56] = tested on: U-251
[57] = tested on: UACC-257
[58] = tested on: UACC-62
[59] = tested on: UO-31
[60] = tested on: DLD-1
[61] = tested on: DMS-114
[62] = tested on: DMS-273
[63] = tested on: LXFL 529
[64] = tested on: M19-MEL
[65] = tested on: SNB-78

## CC(C)C1C(=O)N(c2c(F)c(F)c(F)c(F)c2F)C(=S)N1CC[S+]([O-])c1ccccc1 (stereo not given)
[1]
  GI50: 16.9 µM (inactive)
[2]
  GI50: 16.6 µM (inactive)
[3]
  GI50: 18.9 µM (inactive)
[4]
  GI50: 18.6 µM (inactive)
[5]
  GI50: 15.9 µM (inactive)
[6]
  GI50: 5.19 µM (inactive)
[7]
  GI50: 18.3 µM (inactive)
[8]
  GI50: 15.5 µM (inactive)
[9]
  GI50: 20.7 µM (inactive)
[10]
  GI50: 16.4 µM (inactive)
[11]
  GI50: 8.47 µM (inactive)
[12]
  GI50: 18.8 µM (inactive)
[13]
  GI50: 16.7 µM
[14]
  GI50: 6.84 µM (inactive)
[15]
  GI50: 23.9 µM (inactive)
[16]
  GI50: 9.77 µM (inactive)
[17]
  GI50: 14 µM (inactive)
[18]
  GI50: 30.2 µM (inactive)
[19]
  GI50: 16.7 µM (inactive)
[20]
  GI50: 10.8 µM (inactive)
[21]
  GI50: 16.8 µM (inactive)
[22]
  GI50: 14.4 µM (inactive)
[23]
  GI50: 15.7 µM (inactive)
[24]
  GI50: 16.6 µM (inactive)
[25]
  GI50: 16 µM (inactive)
[26]
  GI50: 17.5 µM (inactive)
[27]
  GI50: 17.3 µM (inactive)
[28]
  GI50: 21.2 µM (inactive)
[29]
  GI50: 15.7 µM (inactive)
[30]
  GI50: 20.4 µM (inactive)
[31]
  GI50: 16.8 µM (inactive)
[32]
  GI50: 19.3 µM (inactive)
[33]
  GI50: 6.49 µM (inactive)
[34]
  GI50: 20 µM (inactive)
[35]
  GI50: 16.6 µM (inactive)
[36]
  GI50: 16.3 µM (inactive)
[37]
  GI50: 17.7 µM (inactive)
[38]
  GI50: 17.1 µM (inactive)
[39]
  GI50: 15.4 µM (inactive)
[40]
  GI50: 18.8 µM (inactive)
[41]
  GI50: 17.8 µM (inactive)
[42]
  GI50: 16.7 µM (inactive)
[43]
  GI50: 18 µM (inactive)
[44]
  GI50: 19.7 µM (inactive)
[45]
  GI50: 16.9 µM (inactive)
[46]
  GI50: 17.5 µM (inactive)
[47]
  GI50: 14.2 µM (inactive)
[48]
  GI50: 19.6 µM (inactive)
[49]
  GI50: 15.8 µM (inactive)
[50]
  GI50: 18.7 µM (inactive)
[51]
  GI50: 26.4 µM (inactive)
[52]
  GI50: 6.22 µM (inactive)
[53]
  GI50: 18.3 µM (inactive)
[54]
  GI50: 6.78 µM (inactive)
[55]
  GI50: 26.9 µM (inactive)
[56]
  GI50: 14.8 µM (inactive)
[57]
  GI50: 20.2 µM (inactive)
[58]
  GI50: 19.7 µM (inactive)
[59]
  GI50: 14.8 µM (inactive)

## O=S1(=O)OCCOS(=O)(=O)C1(Br)Br
[1]
  GI50: > 100 µM (inactive)
[3]
  GI50: > 100 µM (inactive)
[6]
  GI50: > 100 µM (inactive)
[7]
  GI50: > 100 µM (inactive)
[8]
  GI50: > 100 µM (inactive)
[60]
  GI50: > 100 µM (inactive)
[61]
  GI50: > 100 µM (inactive)
[62]
  GI50: > 100 µM (inactive)
[10]
  GI50: > 100 µM (inactive)
[11]
  GI50: > 100 µM (inactive)
[12]
  GI50: > 100 µM (inactive)
[14]
  GI50: > 100 µM (inactive)
[15]
  GI50: > 100 µM (inactive)
[16]
  GI50: > 100 µM (inactive)
[17]
  GI50: > 100 µM (inactive)
[20]
  GI50: > 100 µM (inactive)
[21]
  GI50: > 100 µM (inactive)
[63]
  GI50: > 100 µM (inactive)
[23]
  GI50: > 100 µM (inactive)
[64]
  GI50: > 100 µM (inactive)
[28]
  GI50: > 100 µM (inactive)
[29]
  GI50: > 100 µM (inactive)
[30]
  GI50: 0.375 µM (active)
[31]
  GI50: > 100 µM (inactive)
[33]
  GI50: > 100 µM (inactive)
[35]
  GI50: > 100 µM (inactive)
[36]
  GI50: > 100 µM (inactive)
[38]
  GI50: > 100 µM (inactive)
[40]
  GI50: > 100 µM (inactive)
[42]
  GI50: > 100 µM (inactive)
[43]
  GI50: > 100 µM (inactive)
[44]
  GI50: > 100 µM (inactive)
[45]
  GI50: > 100 µM (inactive)
[46]
  GI50: > 100 µM (inactive)
[47]
  GI50: > 100 µM (inactive)
[48]
  GI50: > 100 µM (inactive)
[49]
  GI50: > 100 µM (inactive)
[50]
  GI50: 80.7 µM (inactive)
[51]
  GI50: > 100 µM (inactive)
[65]
  GI50: > 100 µM (inactive)
[52]
  GI50: > 100 µM (inactive)
[53]
  GI50: > 100 µM (inactive)
[55]
  GI50: > 100 µM (inactive)
[57]
  GI50: > 100 µM (inactive)
[58]
  GI50: > 100 µM (inactive)
[59]
  GI50: 62.7 µM (inactive)

Source: ChEMBL document CHEMBL1201862, “PubChem BioAssay data set” (2004)
